Source: patent US8790719B2, “Phytocannabinoids in the treatment of cancer” (GW Pharma Limited, priority 2010, dated 2014)
Read-outs that look alike come from different tables or passages of the source.

Experiments:
GPR55 = target: T1, GPR55 (Homo sapiens, UniProt Q9Y2T6); test: ERK Alphascreen assay using GPR55-HEK cells; format: cell-based
T1 construct: expressed in transfected cells; host or cells: HEK cells (GPR55-HEK)
Excerpt: An ERK Alphascreen assay was undertaken using GPR55-HEK cells.

DU-145 = test: Cell vitality (MTT assay), DU-145; format: cell-based; conditions: Homo sapiens, read-out: IC50 on cell vitality
Procedure: (§1) Cells were seeded in presence of FBS in 6 wells multiwell with a density of 8×10^4 cells/well (DU-145) or 1×10^5 cells/well (LNCaP). After 7 hours, cells were starved of dihydrotestosterone (DHT) for 15 hours and treated with increased concentrations of compounds for 24 or 48 hours (absence of serum was maintained during the treatments). Cell viability was assessed by MTT staining.
(§2) Phytocannabinoid BDS and their respective isolated phytocannabinoids were tested in both the hormone-insensitive (DU-145) prostate cancer cells and hormone-sensitive (LNCaP) prostate cancer cells. Three different phytocannabinoids were chosen for this experiment: CBG BDS and isolated compound, CBC BDS and isolated compound and CBD BDS and isolated compound.
(§3) The experiment was repeated in the hormone-insensitive (DU-145) prostate cancer cells and hormone-sensitive (LNCaP) prostate cancer cells that had not been starved of DHT. Here just the CBG BDS and isolated CBG are illustrated in Table 7.2 below.

LNCaP = test: Cell vitality (MTT assay), LNCaP; format: cell-based; conditions: Homo sapiens, read-out: IC50 on cell vitality
Procedure: as §1, §2, §3

[1] = tested on: MDA-MB-231 breast cancer cell line; test: Cell viability of breast cancer cells (Alamar blue assay); format: cell-based; conditions: Homo sapiens, 72 hours
Procedure: Cells were seeded in presence of FBS in 6 wells multiwell and treated with increased concentrations of compounds for 72 hours. Cell viability was assessed by Alamar blue staining.
Isolated phytocannabinoids were tested on the MDA-MB-231 breast cancer cell line in order to determine whether phytocannabinoids were effective in other types of cancer other than prostate cancer. The different isolated phytocannabinoids chosen for this experiment were: CBGA, CBDA, CBDV, CBD, THCV and THC.

[2] = tested on: Aberrant crypt focus (ACF), polyps and tumours; test: Colon carcinogenesis in the mouse induced by azoxymethane; format: in vivo; conditions: i.p. three times per week for three months; FIG. 5 c), FIG. 6 c)
Excerpt: Aberrant crypt focus (ACF), polyps and tumours were induced in the mouse by the carcinogenic substance azoxymethane. The phytocannabinoids were given (i.p.) to the mice three times per week for a period of three months. The COX-2 inhibitor celecoxib was used as a positive control.

Glioma cells = test: Human glioma cell vitality (MTT assay); format: cell-based; conditions: read-out: IC50 on glioma cell vitality
Procedure: Cells were seeded in presence of FBS in 6 wells multiwell with a density of 8×10^4 cells/well. Glioma cells were treated with increased concentrations of compounds and cell viability was assessed by MTT staining.
CBD BDS and isolated CBD, CBG and CBDV were tested.

[3] = tested on: human glioma xenograft tumours; test: Human glioma xenograft tumour volume; format: in vivo; parameters: unit not given here
Procedure: The phytocannabinoids were also tested with the TMZ as is detailed in Table 13.2 below.

[4] = tested on: subcutaneously implanted U87 human glioma cells; conditions: s.c., 0.5 mg/mouse; cited from earlier work
U87 glioma cells = test: Viability of U87 glioma cells (MTT assay), THC, CBD, TMZ alone and combined; format: cell-based, human
[5] = tested on: recurrent glioblastoma multiforme; conditions: nine patients, THC intra-tumourally; 95% confidence interval: 15-33; cited from earlier work

T1 sequence (Q9Y2T6 whole entry, species assumed): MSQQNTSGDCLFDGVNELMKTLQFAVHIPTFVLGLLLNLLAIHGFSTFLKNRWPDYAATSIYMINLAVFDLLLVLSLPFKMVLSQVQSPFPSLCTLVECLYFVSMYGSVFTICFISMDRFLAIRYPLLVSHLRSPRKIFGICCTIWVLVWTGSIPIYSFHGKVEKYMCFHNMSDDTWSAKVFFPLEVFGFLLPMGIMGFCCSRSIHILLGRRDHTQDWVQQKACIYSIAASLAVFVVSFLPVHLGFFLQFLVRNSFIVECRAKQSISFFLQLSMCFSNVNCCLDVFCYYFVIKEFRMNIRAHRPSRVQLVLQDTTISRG

Structure (SMILES) | Effect at GPR55 (GPR55) | IC50 (DU-145; DU-145, 24 h) | IC50 (DU-145; DU-145, 48 h) | IC50 (LNCaP; 24 h) | IC50 (LNCaP; 48 h) | IC50 [1] | numbers of tumours per animal [2] | IC50 (Glioma cells) | Tumour volume (increase from day 1) ([3]; dose level 3.7 mg/kg (each)) | Tumour volume (increase from day 1) ([3]; dose level 7.5 mg/kg (each)) | Tumour volume (increase from day 1) ([3]; dose level 15.0 mg/kg) | growth of subcutaneously implanted U87 human glioma cells [4] | Cell Viability (%) (U87 glioma cells; cannabinoid 1 μM (each), Table 12.2) | Cell Viability (%) (U87 glioma cells; dose level 0.7 μM (each)) | Cell Viability (%) (U87 glioma cells; dose level 0.9 μM (each)) | Cell Viability (%) (U87 glioma cells; dose level 1.2 μM (each)) | Median survival from the beginning of cannabinoid administration [5]
C=C(C)[C@@H]1CCC(C)=C[C@H]1c1c(O)cc(CCCCC)cc1O [CBD, Cannabidiol] | Antagonist | 5.5 µM | 4.9 µM | 5.3 µM | 5.6 µM | 5 µM | significantly reduced the numbers of tumours per animal | 8.92 µM | 9.1 | 8.9 | 7.6 | significantly inhibited the growth | – | – | – | – | –
CCCCCc1cc(O)c2c(c1)OC(C)(C)[C@@H]1CCC(C)=C[C@@H]21 [THC, Tetrahydrocannabinol] | – | – | – | – | – | > 10 µM | – | – | 8.7 | 8.5 | 5.8 | – | 115% | 100% | 92% | 80% | 24 weeks
